# Experimental data published in US20250059218A1, “ENPP1 Inhibitors and Methods of Modulating Immune Response” (The Board of Trustees of the Leland Stanford Junior …, priority 2019, published 2025).
# Like-named read-outs stand apart in the source and are kept apart here.
# Key:
# mouse ENPP1 = mouse ENPP1 (Mus musculus (Mouse), UniProt P06802); test: ENPP1 enzyme activity assay using cGAMP as substrate (luciferase detection of AMP); format: biochemical
# CD14+ PBMCs = test: Stimulation of CD14+ PBMCs with extracellular cGAMP (IFNB1 RT-qPCR); format: cell-based, human; conditions: submicromolar soluble cGAMP
# 4T1-Luc tumors = test: 4T1-Luc tumor mouse model (tumor volume, survival)
# [1] = ENPP1 enzyme activity, second activity table (titled TABLE 2, Compounds; column without head), read-out: IC50
# mouse ENPP1, sequence (P06802 85-906): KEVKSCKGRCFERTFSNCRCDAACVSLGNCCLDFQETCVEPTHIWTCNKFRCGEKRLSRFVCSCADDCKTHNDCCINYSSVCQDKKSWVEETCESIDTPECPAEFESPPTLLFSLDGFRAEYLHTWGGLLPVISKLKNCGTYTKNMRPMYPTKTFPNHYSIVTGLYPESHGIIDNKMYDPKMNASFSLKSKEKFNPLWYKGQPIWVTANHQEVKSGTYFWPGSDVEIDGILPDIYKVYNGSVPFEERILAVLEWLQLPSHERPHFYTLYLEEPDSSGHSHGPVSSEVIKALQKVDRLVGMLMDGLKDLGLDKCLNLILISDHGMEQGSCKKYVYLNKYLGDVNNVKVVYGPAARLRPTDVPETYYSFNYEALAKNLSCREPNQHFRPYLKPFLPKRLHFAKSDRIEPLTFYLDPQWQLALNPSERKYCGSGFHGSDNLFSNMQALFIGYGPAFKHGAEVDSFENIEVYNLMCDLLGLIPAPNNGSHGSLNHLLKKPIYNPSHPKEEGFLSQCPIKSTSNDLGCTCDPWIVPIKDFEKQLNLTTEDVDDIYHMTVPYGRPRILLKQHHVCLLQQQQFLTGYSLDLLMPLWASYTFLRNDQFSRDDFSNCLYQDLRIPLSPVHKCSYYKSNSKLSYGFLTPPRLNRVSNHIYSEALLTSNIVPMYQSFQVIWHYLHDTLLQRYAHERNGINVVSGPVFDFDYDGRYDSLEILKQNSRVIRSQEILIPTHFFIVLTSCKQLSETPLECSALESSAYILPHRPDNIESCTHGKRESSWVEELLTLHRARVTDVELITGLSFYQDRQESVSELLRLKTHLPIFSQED
Compound,IC50 (mouse ENPP1; [1]),IC50 (mouse ENPP1),also measured
COc1ccc2ncc(C#N)c(N3CCC(CCP(=O)(O)O)CC3)c2c1 [Compounds 44],50 to 100 nM,–,–
COc1cc2ncnc(Nc3ccc(CP(=O)(O)O)cc3)c2cc1OC [Compound 3],–,–,"IC50 (mouse ENPP1; ENPP1 enzyme activity, Table 4, read-out: IC50): 50 to 100 nM"
COc1cc2ncc(C#N)c(N3CCC(CCOP(O)(O)=S)CC3)c2cc1OC [Compounds 202],–,50 to 100 nM,–
COc1cccc2c(N3CCC(CCP(=O)(O)O)CC3)c(C#N)c(/C=C\c3cccnc3)nc12 [Compounds 206],> 100 nM,–,–
COc1cc2ncnc(NCc3ccc(OP(O)(O)=S)cc3)c2cc1OC [Compound 7],–,50 to 100 nM,–
"Nc1nc2c(ncn2[C@@H]2O[C@@H]3COP(=O)(O)O[C@H]4[C@@H](O)[C@H](n5cnc6c(N)ncnc65)O[C@@H]4COP(=O)(O)O[C@@H]2[C@@H]3O)c(=O)[nH]1 [cGAMP, cyclic guanosine monophosphate-adenosine monophosphate]",–,–,"IFNB1 response (CD14+ PBMCs): upregulating IFNB1; effect over IR treatment (4T1-Luc tumors; 20 Gy IR + intratumoral 10 μg cGAMP alone): had no effect over IR treatment; mice cured (4T1-Luc tumors; ENPP1−/− 4T1-Luc tumors, 20 Gy IR + intratumoral cGAMP, no anti-CTLA-4): 30%"
